From the OligoGym collection come the findings set out here.

Where “and” joins values, the source holds several entries; their conditions need not be identical. Identical values can stand only once. HELM strings list units from the 5' end as sugar, base in round brackets, then linkage (d deoxyribose, r ribose, m 2'-O-methyl, p phosphodiester). Strings are as the collection lists them, not checked against the first reports. ss, as = sense and antisense strand; [lna] = locked nucleic acid (LNA); [hna] = hexitol nucleic acid; [s4r] = 4'-thioribose; [fl2r] = 2'-fluoro
Further: test system not given here.

For the data set the following is noted: siRNA.
“RNA1{r(G)p.r(A)p.r(C)p.r(G)p.r(U)p.r(A)p.r(A)p.r(A)p.r(C)p.r(G)p.r(G)p.r(C)p.r(C)p.r(A)p.r(C)p.r(A)p.r(A)p.r(G)p.r(U)p.r(U)p.r(C)}|RNA2{r(A)p.r(C)p.r(U)p.r(U)p.r(G)p.r(U)p.r(G)p.r(G)p.r(C)p.r(C)p.r(G)p.r(U)p.r(U)p.r(U)p.r(A)p.r(C)p.r(G)p.r(U)p.[lna](C)p.[lna](G)p.r(C)}$$$RNA1{StrandType:ss}|RNA2{StrandType:as}$” showed a target mRNA knockdown of 86.3%.
With “RNA1{r(G)p.r(A)p.r(A)p.m(U)p.r(A)p.r(A)p.r(C)p.r(C)p.r(U)p.r(G)p.r(A)p.r(A)p.r(C)p.r(G)p.r(U)p.m(C)p.r(A)p.r(C)p.r(C)p.r(T)p.r(T)}|RNA2{r(G)p.r(G)p.r(U)p.r(G)p.r(A)p.r(C)p.r(G)p.r(U)p.r(U)p.m(C)p.r(A)p.r(G)p.r(G)p.r(U)p.r(U)p.r(A)p.r(U)p.r(U)p.r(C)p.r(T)p.r(T)}$$$RNA1{StrandType:ss}|RNA2{StrandType:as}$” the figure was 71%; with “RNA1{r(A)p.r(A)p.r(C)p.r(U)p.r(C)p.m(U)p.r(A)p.r(C)p.m(U)p.r(G)p.m(U)p.r(G)p.r(G)p.r(A)p.r(G)p.r(U)p.r(C)p.r(G)p.r(G)p.r(T)p.r(T)}|RNA2{r(C)p.r(C)p.r(G)p.r(A)p.r(C)p.r(U)p.r(C)p.m(C)p.r(A)p.r(C)p.r(A)p.r(G)p.m(U)p.r(A)p.r(G)p.r(A)p.r(G)p.r(U)p.r(U)p.r(T)p.r(T)}$$$RNA1{StrandType:ss}|RNA2{StrandType:as}$”, 68%.
“RNA1{r(G)p.r(A)p.r(A)p.r(A)p.r(A)p.r(C)p.r(G)p.r(C)p.r(U)p.r(U)p.r(G)p.r(U)p.r(A)p.r(A)p.r(A)p.r(G)p.r(C)p.r(C)p.r(G)p.r(T)p.r(T)}|RNA2{r(C)p.r(G)p.r(G)p.r(C)p.r(U)p.r(U)p.m(U)p.r(A)p.r(C)p.r(A)p.r(A)p.r(G)p.r(C)p.r(G)p.r(U)p.r(U)p.r(U)p.r(U)p.r(C)p.r(T)p.r(T)}$$$RNA1{StrandType:ss}|RNA2{StrandType:as}$” showed a target mRNA knockdown of 56%.
Turning to “RNA1{[fl2r](A)p.[fl2r](A)p.r(C)p.r(C)p.r(C)p.[fl2r](A)p.r(C)p.r(C)p.[fl2r](A)p.r(C)p.[fl2r](A)p.r(G)p.r(C)p.[fl2r](U)p.[fl2r](A)p.r(G)p.[fl2r](A)p.[fl2r](A)p.r(C)p.[fl2r](U)p.[fl2r](U)}|RNA2{r(A)p.r(A)p.r(G)p.r(U)p.r(U)p.r(C)p.r(U)p.r(A)p.r(G)p.r(C)p.r(U)p.r(G)p.r(U)p.r(G)p.r(G)p.r(U)p.r(G)p.r(G)p.r(G)p.r(U)p.r(U)}$$$RNA1{StrandType:ss}|RNA2{StrandType:as}$”, the target mRNA knockdown is 37% and 54%.
Substance “RNA1{r(G)p.r(G)p.r(A)p.r(G)p.r(C)p.m(U)p.m(A)p.r(G)p.r(A)p.r(C)p.r(G)p.r(G)p.r(G)p.m(U)p.r(A)p.r(C)p.r(G)p.r(A)p.r(G)p.r(T)p.r(T)}|RNA2{r(C)p.r(U)p.r(C)p.r(G)p.r(U)p.r(A)p.r(C)p.r(C)p.r(C)p.r(G)p.r(U)p.r(C)p.m(U)p.r(A)p.r(G)p.r(C)p.r(U)p.r(C)p.r(C)p.r(T)p.r(T)}$$$RNA1{StrandType:ss}|RNA2{StrandType:as}$” showed a target mRNA knockdown of 81%.
With “RNA1{r(A)p.r(A)p.r(A)p.r(G)p.r(C)p.r(G)p.r(G)p.m(U)p.m(G)p.r(G)p.r(A)p.r(U)p.m(C)p.r(A)p.r(G)p.r(C)p.r(U)p.r(C)p.r(U)p.r(T)p.r(T)}|RNA2{r(A)p.r(G)p.r(A)p.r(G)p.r(C)p.m(U)p.r(G)p.r(A)p.r(U)p.r(C)p.m(C)p.m(A)p.r(C)p.r(C)p.r(G)p.r(C)p.r(U)p.r(U)p.r(U)p.r(T)p.r(T)}$$$RNA1{StrandType:ss}|RNA2{StrandType:as}$” the figure was 63%; with “RNA1{r(C)p.r(G)p.r(U)p.r(A)p.r(C)p.r(G)p.r(C)p.r(G)p.r(G)p.r(A)p.r(A)p.r(U)p.r(A)p.r(C)p.r(U)p.r(U)p.r(C)p.[s4r](G)p.[s4r](A)p.r(T)p.r(T)}|RNA2{[s4r](U)p.[s4r](C)p.r(G)p.r(A)p.r(A)p.r(G)p.r(U)p.r(A)p.r(U)p.r(U)p.r(C)p.r(C)p.r(G)p.r(C)p.r(G)p.r(U)p.r(A)p.r(C)p.r(G)p.r(T)p.r(T)}$$$RNA1{StrandType:ss}|RNA2{StrandType:as}$”, 91.2%; with “RNA1{r(A)p.r(A)p.r(G)p.r(G)p.m(C)p.r(A)p.m(U)p.m(G)p.r(C)p.r(U)p.r(U)p.r(C)p.r(G)p.r(G)p.r(A)p.r(A)p.r(A)p.r(C)p.r(U)p.r(T)p.r(T)}|RNA2{r(A)p.r(G)p.r(U)p.r(U)p.r(U)p.r(C)p.r(C)p.r(G)p.r(A)p.r(A)p.r(G)p.m(C)p.r(A)p.m(U)p.r(G)p.r(C)p.r(C)p.r(U)p.r(U)p.r(T)p.r(T)}$$$RNA1{StrandType:ss}|RNA2{StrandType:as}$”, 87%.
In turn, “RNA1{[hna](G)p.[hna](A)p.[hna](C)p.r(G)p.r(U)p.r(A)p.r(A)p.r(A)p.r(C)p.r(G)p.r(G)p.r(C)p.r(C)p.r(A)p.r(C)p.r(A)p.r(A)p.[hna](G)p.[hna](U)p.r(U)p.d(T)}|RNA2{r(A)p.r(C)p.[lna](T)p.r(U)p.r(G)p.[lna](T)p.r(G)p.r(G)p.r(C)p.r(C)p.r(G)p.r(U)p.r(U)p.[lna](T)p.r(A)p.r(C)p.r(G)p.[lna](T)p.r(C)p.[lna](G)p.[lna](C)}$$$RNA1{StrandType:ss}|RNA2{StrandType:as}$” yielded a target mRNA knockdown of 5.4%.
With “RNA1{[lna](A)p.r(C)p.r(U)p.r(G)p.r(U)p.r(C)p.r(A)p.r(A)p.r(A)p.r(C)p.r(C)p.r(C)p.r(G)p.r(G)p.r(U)p.r(A)p.r(A)p.r(U)p.r(U)p.[lna](T)p.[lna](T)}|RNA2{r(A)p.r(A)p.r(U)p.r(U)p.r(A)p.r(C)p.r(C)p.r(G)p.r(G)p.r(G)p.r(U)p.r(U)p.r(U)p.r(G)p.r(A)p.r(C)p.r(A)p.r(G)p.r(U)p.[lna](T)p.[lna](T)}$$$RNA1{StrandType:ss}|RNA2{StrandType:as}$”, the target mRNA knockdown amounted to 52%.
Substance “RNA1{r(G)p.m(C)p.r(A)p.r(G)p.r(C)p.r(A)p.r(C)p.r(G)p.r(A)p.r(C)p.r(U)p.r(U)p.r(C)p.r(U)p.r(U)p.r(C)p.r(A)p.r(A)p.r(G)p.r(U)p.r(U)}|RNA2{r(C)p.r(U)p.r(U)p.r(G)p.r(A)p.r(A)p.r(G)p.r(A)p.r(A)p.r(G)p.r(U)p.r(C)p.r(G)p.r(U)p.r(G)p.r(C)p.r(U)p.r(G)p.r(C)p.r(U)p.r(U)}$$$RNA1{StrandType:ss}|RNA2{StrandType:as}$” returned a target mRNA knockdown of 71.7%.
Turning to “RNA1{[fl2r](G)p.r(U)p.[fl2r](U)p.r(C)p.[fl2r](A)p.r(C)p.[fl2r](G)p.r(U)p.[fl2r](C)p.r(C)p.[fl2r](U)p.r(A)p.[fl2r](C)p.r(C)p.[fl2r](C)p.r(C)p.[fl2r](U)p.r(U)p.[fl2r](U)p.r(T)p.r(T)}|RNA2{r(A)p.r(A)p.r(A)p.r(G)p.r(G)p.r(G)p.r(G)p.r(U)p.r(A)p.r(G)p.r(G)p.r(A)p.[fl2r](C)p.r(G)p.r(U)p.r(G)p.r(A)p.r(A)p.[fl2r](C)p.r(T)p.r(T)}$$$RNA1{StrandType:ss}|RNA2{StrandType:as}$”, the target mRNA knockdown came out at 23%.
In turn, “RNA1{r(G)p.r(A)p.r(C)p.r(G)p.[hna](U)p.r(A)p.r(A)p.[hna](A)p.r(C)p.r(G)p.[hna](G)p.r(C)p.r(C)p.[hna](A)p.r(C)p.r(A)p.r(A)p.r(G)p.[hna](U)p.r(U)p.d(T)}|RNA2{r(A)p.r(C)p.r(U)p.r(U)p.r(G)p.r(U)p.r(G)p.r(G)p.r(C)p.r(C)p.r(G)p.r(U)p.r(U)p.r(U)p.r(A)p.r(C)p.r(G)p.r(U)p.[lna](C)p.[lna](G)p.r(C)}$$$RNA1{StrandType:ss}|RNA2{StrandType:as}$” showed a target mRNA knockdown of 83.9%.
